Legend:
[1] = system: rats; details: rat, in vivo
[2] = system: rats; details: rat, in vivo; remark: listed apart in the source

`CC(C)C[C@H](CN)CC(=O)O` [Pregabalin] was tested, and the sedative clinical symptoms [1] was “dose-dependant increase in the level of sedative clinical symptoms” and the “effect on left and right paw withdrawal latencies compared to vehicle control” value [2] was “failed to have a significant effect”.

Reference: patent US9206190B2 (priority 2008, dated 2015)
